Among the test systems are DLD-1 colon; OVCAR-4 ovarian; SNB-78 CNS; LOX IMVI melanoma; MCF7 breast; SNB-75 CNS; NCI-H522 lung; KM20L2 colon; DMS 114 small cell lung; SK-MEL-28 melanoma; MOLT-4 leukemia; M14 melanoma.
Test in all cases: inhibition of tumour cell growth, NCI panel, 48 h

Molecules are shown by their SMILES. Where “and” joins values, the source holds several entries; their conditions need not be identical. Equal entries are not always repeated.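 Five concentrations, 48 hours, 96-well plates. Abbreviation: GI50, concentration required for 50% inhibition of growth. TGI is the concentration that stops growth completely.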 Bounds are passed on as bounds.

As to `COc1ccccc1NC(=O)C1=C(C)NC(C)=C(C(=O)Nc2ccccc2OC)C1c1ccco1`, the TGI is above 100 µM in the assay on DLD-1 colon; 88.2 µM with OVCAR-4 ovarian; above 100 µM in the assay with SNB-78 CNS; above 100 µM in the assay with LOX IMVI melanoma; above 100 µM in the assay on MCF7 breast; 29.7 µM with SNB-75 CNS. Also, the TGI in the assay on NCI-H522 lung was 8.6 µM; in the assay on KM20L2 colon, 13 µM; in the assay on DMS 114 small cell lung, 7.53 µM; with SK-MEL-28 melanoma it was above 92 µM; with MOLT-4 leukemia, 52.7 µM; with M14 melanoma it was 31.9 µM.
Consider `COc1cc2c(c(OC)c1OC)C(=O)NCCC2`, for which the TGI in the assay on DLD-1 colon, in the assay with OVCAR-4 ovarian, in the assay on SNB-78 CNS, with LOX IMVI melanoma, in the assay on MCF7 breast and in the assay on SNB-75 CNS was above 100 µM in each case. Further, the TGI with NCI-H522 lung, in the assay on KM20L2 colon, with DMS 114 small cell lung, in the assay with SK-MEL-28 melanoma, in the assay on MOLT-4 leukemia and with M14 melanoma was above 100 µM in each case.
With `NC1=NCN(C2OC(CO)C(O)C2O)C(=O)N1` (stereo unspecified), the TGI with DLD-1 colon came out at 1560 µM; with OVCAR-4 ovarian, 1510 µM; in the assay on SNB-78 CNS, 1780 µM; with LOX IMVI melanoma it was 135 µM; with MCF7 breast, 328 µM; with SNB-75 CNS it was 392 µM. The TGI was 144 µM in the assay on NCI-H522 lung; 1530 µM with KM20L2 colon; 437 µM with DMS 114 small cell lung; 1660 µM in the assay with SK-MEL-28 melanoma; 152 µM with MOLT-4 leukemia; 405 µM in the assay on M14 melanoma.
For `Cc1ccc(OC(=O)N2C/C(=C\c3ccccc3)C(=O)/C(=C/c3ccccc3)C2)cc1`, the TGI worked out at 28.1 µM with DLD-1 colon; 32.2 µM with OVCAR-4 ovarian; 82.3 µM in the assay with SNB-78 CNS; 9.71 µM in the assay with LOX IMVI melanoma; 56 µM in the assay on MCF7 breast; 55.4 µM with SNB-75 CNS. For the same molecule, the TGI was 33.8 µM in the assay on NCI-H522 lung; above 100 µM with KM20L2 colon; 59.4 µM in the assay on DMS 114 small cell lung; above 75 µM in the assay on SK-MEL-28 melanoma; 18.5 µM in the assay on MOLT-4 leukemia; 21.6 µM with M14 melanoma.
With `NCCCN=c1ccc2c3c1c(O)c1c(O)ccc(=O)c1c3[nH]n2CCNCCO`, the TGI is 159 µM with DLD-1 colon; 10.5 µM and 20.1 µM with OVCAR-4 ovarian; 4.15 µM with SNB-78 CNS; 5.8 µM in the assay with LOX IMVI melanoma; 21.5 µM and 11.2 µM in the assay on MCF7 breast; 5.14 µM and 4.69 µM in the assay with SNB-75 CNS. For the same molecule, the TGI in the assay with NCI-H522 lung was 4.69 µM and 3.28 µM; in the assay with KM20L2 colon, 38.4 µM; in the assay with DMS 114 small cell lung, above 250 µM; with MOLT-4 leukemia, 7.68 µM and 19.4 µM; with M14 melanoma, 14.2 µM and 28 µM. The GI50 in the assay on LOX IMVI melanoma was 1530 nM; with MCF7 breast, 796 nM; in the assay on SNB-75 CNS, 423 nM; in the assay with NCI-H522 lung it was 550 nM; with SK-MEL-28 melanoma it was 5.48 µM and 6.41 µM; in the assay with MOLT-4 leukemia, 343 nM. Further, the GI50 in the assay on M14 melanoma is 3.67 µM.

Source of the values: PubChem BioAssay (NCI).
